Source: patent US4256764A, “Process for making derivatives of dimers of isoeugenol” (PLC Pharmaceutical Licenses Co. Ltd., priority 1978, dated 1981)

What was measured:
[1] = system: experimental liver damage; test: hexobarbitone sleep test (experimental liver damage by carbon tetrachloride); assay type: in vivo; details: rats
Protocol: A standard testing process for pharmacological effect for experimental liver damage is the hexobarbitone sleep test, whose execution is described among others in a work by G. Vogel et al. in the Arzneimittelforschung, volume 25 (1975), pp. 82-89 and pp. 179-188. For this purpose 100 mg/kg of the compound to be tested were given to rats in groups each of 15 animals in carboxymethyl cellulose intraperitoneally and 90 minutes later 0.3 ml/kg carbon tetrachloride in olive oil by means of a throat probe. The rats were anaesthetised 48 hours later by intraperitoneal dosing of 70 mg/kg of hexabarbitone and the sleep duration was determined: […]

[2] = toxicologic investigations (LD50); details: rat, in vivo, po; rats, peroral application
Excerpt: The toxicologic investigations indicate a good compatibility of the compounds produced by the process according to the invention.

[3] = system: mice; test: α amanitine test (mortality); assay type: in vivo; details: 20 per group, 50 mg/kg i.v., 0.7 mg/kg α amanitine i.p. 1 h later, observed 7 days
Protocol: (§1) These tests have been described in the already-quoted work by G. Vogel et al. published in Arzneimittelforschung, volume 25 (1975), pages 82 to 89 and 179 to 188.
In the α amanitine test the mice received in groups of 20 animals each 50 mg/kg of N-(5-(trans-2,3-dihydro-7-methoxy-3-methyl-5-(E)-propenylbenzofuran-2-yl)-2--hydroxy-3-methoxyphenyl-methyl)-N) (2-hydroxyethyl)-N-methyl ammonium chloride and for comparison Silymarine intravenously and an hour later 0.7 mg/kg of α amanitine intraperitoneally.

[4] = system: serum enzymes GOT and GPT; test: galactosamine test (liver protection, serum enzymes GOT and GPT); assay type: in vivo; details: rats
Protocol: as §1
In the galactosamine tests the rats received in groups each of 15 animals 100 mg/kg of the compound to be tested N-(5-(trans-2,3-dihydro-7-methoxy-3-methyl-5-(E)-propenylbenzofuran-2-yl)- 2-hydroxy-3-methoxy-phenylmethyl)-N-(2-hydroxyethyl)-N-methyl-ammonium chloride and for comparison purposes Silymarine in the tragacanth suspension perorally, one hour later interperitoneally 350 mg/kg of galactosamine hydrochloride and 24 hours later blood samples were taken for determining the serum enzymes GOT and GPT.

[5] = 100 mg/kg perorally, enzyme GPT
[6] = 15 per group, 100 mg/kg perorally in tragacanth suspension, 350 mg/kg galactosamine hydrochloride i.p. 1 h later, blood samples 24 h later

Compound | statistical significance of the effect (sleep duration) ([1]; 100 mg/kg i.p., carbon tetrachloride) | sleep duration ([1]; 15 per group, 100 mg/kg i.p. in carboxymethyl cellulose, 0.3 ml/kg carbon tetrachloride 90 min later, 70 mg/kg hexobarbitone i.p. after 48 h) | LD50 [2] | mortality rate [3] | effect on GPT compared with Silymarine [4, 5] | statistical significance of the effect on GPT [4, 5] | GOT [4, 6] | GPT [4, 6]
C/C=C/c1cc(OC)c2c(c1)[C@@H](C)[C@H](c1ccc(O)c(OC)c1)O2 (relative stereo) [dehydrodiisoeugenol, trans-2,3-dihydro-2-(4-hydroxy-3-methoxyphenyl)-7-methoxy-3-methyl-5-(E)-propenylbenzofurane] | highly significant | 97 min | – | – | – | – | – | –
C/C=C/c1cc(OC)c2c(c1)[C@@H](C)[C@H](c1cc(CN(C)CCO)c(O)c(OC)c1)O2.Cl (relative stereo) [N-(5-(trans-2,3-dihydro-7-methoxy-3-methyl-5-(E)-propenylbenzofuran-2-yl)-2-hydroxy-3-methoxy-phenylmethyl)-N-(2-hydroxyethyl)-N-methyl-ammonium chloride] | – | – | 4000 to 16000 mg/kg | 20% | clearly better than that of Silymarine | highly significant | 422 | 185
